“Also recorded” adds a separate entry of the source.
Assay: Storage stability of venetoclax polymorphs, analyzed by PXRD for polymorph integrity
Type: physicochemical
Protocol: The present invention provides new polymorphs of venetoclax which may be characterized by powder X-ray diffraction (PXRD). Thus, samples of each disclosed polymorph were analyzed by PXRD on a BRUKER D-8 Discover powder diffractometer equipped with a goniometer of θ/2θ configuration and Lynx Eye detector. The Cu-anode X-ray tube was operated at 40 kV and 30 mA. The experiments were conducted over the […] of 2.0°-50.0°, 0.030° step size, and 0.4 seconds step time.
Thus, the stability of samples of amorphous venetoclax, as well as crystalline forms M9, M10, and M21 were stored at 40° C./75% relative humidity (RH) and at 25° C./60% relative humidity (RH) for 3 months. The samples were analyzed by PXRD for polymorph integrity.

CC1(C)CCC(CN2CCN(c3ccc(C(=O)NS(=O)(=O)c4ccc(NCC5CCOCC5)c([N+](=O)[O-])c4)c(Oc4cnc5[nH]ccc5c4)c3)CC2)=C(c2ccc(Cl)cc2)C1 [form M21, 4-[4-[[2-(4-chlorophenyl)-4,4-dimethylcyclohexen-1-yl]methyl]piperazin-1-yl]-N-[3-nitro-4-(oxan-4-ylmethylamino)phenyl]sulfonyl-2-(1H-pyrrolo[2,3-b]pyridin-5-yloxy)benzamide]
PXRD (polymorph integrity) (at 25° C./60% RH, 3 months, listed as M21): no change in PXRD pattern; also recorded: Stable
PXRD (polymorph integrity) (at 25° C./60% RH, Initial, listed as M21): Crystalline
PXRD (polymorph integrity) (at 40° C./75% RH, 3 months, listed as M21): no change in PXRD pattern; also recorded: Stable
PXRD (polymorph integrity) (at 40° C./75% RH, Initial, listed as M21): Crystalline

CC1(C)CCC(CN2CCN(c3ccc(C(=O)NS(=O)(=O)c4ccc(NCC5CCOCC5)c([N+](=O)[O-])c4)c(Oc4cnc5[nH]ccc5c4)c3)CC2)=C(c2ccc(Cl)cc2)C1 [form M9, 4-[4-[[2-(4-chlorophenyl)-4,4-dimethylcyclohexen-1-yl]methyl]piperazin-1-yl]-N-[3-nitro-4-(oxan-4-ylmethylamino)phenyl]sulfonyl-2-(1H-pyrrolo[2,3-b]pyridin-5-yloxy)benzamide]
PXRD (polymorph integrity) (at 25° C./60% RH, 3 months, listed as M9): no change in PXRD pattern; also recorded: Stable
PXRD (polymorph integrity) (at 25° C./60% RH, Initial, listed as M9): Crystalline
PXRD (polymorph integrity) (at 40° C./75% RH, 3 months, listed as M9): no change in PXRD pattern; also recorded: Stable
PXRD (polymorph integrity) (at 40° C./75% RH, Initial, listed as M9): Crystalline

CC1(C)CCC(CN2CCN(c3ccc(C(=O)NS(=O)(=O)c4ccc(NCC5CCOCC5)c([N+](=O)[O-])c4)c(Oc4cnc5[nH]ccc5c4)c3)CC2)=C(c2ccc(Cl)cc2)C1 [form M10, 4-[4-[[2-(4-chlorophenyl)-4,4-dimethylcyclohexen-1-yl]methyl]piperazin-1-yl]-N-[3-nitro-4-(oxan-4-ylmethylamino)phenyl]sulfonyl-2-(1H-pyrrolo[2,3-b]pyridin-5-yloxy)benzamide]
PXRD (polymorph integrity) (at 25° C./60% RH, 3 months, listed as M10): no change in PXRD pattern; also recorded: Stable
PXRD (polymorph integrity) (at 25° C./60% RH, Initial, listed as M10): Crystalline
PXRD (polymorph integrity) (at 40° C./75% RH, 3 months, listed as M10): no change in PXRD pattern; also recorded: Stable
PXRD (polymorph integrity) (at 40° C./75% RH, Initial, listed as M10): Crystalline

CC1(C)CCC(CN2CCN(c3ccc(C(=O)NS(=O)(=O)c4ccc(NCC5CCOCC5)c([N+](=O)[O-])c4)c(Oc4cnc5[nH]ccc5c4)c3)CC2)=C(c2ccc(Cl)cc2)C1 [Amorphous, 4-[4-[[2-(4-chlorophenyl)-4,4-dimethylcyclohexen-1-yl]methyl]piperazin-1-yl]-N-[3-nitro-4-(oxan-4-ylmethylamino)phenyl]sulfonyl-2-(1H-pyrrolo[2,3-b]pyridin-5-yloxy)benzamide]
PXRD (polymorph integrity) (at 25° C./60% RH, 1 months): Stable
PXRD (polymorph integrity) (at 25° C./60% RH, 2 months): Stable
PXRD (polymorph integrity) (at 25° C./60% RH, 3 months): Stable
PXRD (polymorph integrity) (at 25° C./60% RH, 3 months, listed as amorphous venetoclax): no change in PXRD pattern
PXRD (polymorph integrity) (at 25° C./60% RH, 15 days): Stable
PXRD (polymorph integrity) (at 25° C./60% RH, Initial): Amorphous
PXRD (polymorph integrity) (at 40° C./75% RH, 1 months): Stable
PXRD (polymorph integrity) (at 40° C./75% RH, 2 months): Stable
PXRD (polymorph integrity) (at 40° C./75% RH, 3 months): Stable
PXRD (polymorph integrity) (at 40° C./75% RH, 3 months, listed as amorphous venetoclax): no change in PXRD pattern
PXRD (polymorph integrity) (at 40° C./75% RH, 15 days): Stable
PXRD (polymorph integrity) (at 40° C./75% RH, Initial): Amorphous

— US10800777B2, “Polymorphic forms of VENCLEXTA” (Mylan Laboratories Limited, priority 2016, dated 2020)
